The values that follow come from paper PMC7762955, “Antibiotic binding releases autoinhibition of the TipA multidrug-resistance transcriptional regulator” (The Journal of Biological Chemistry, 2020).

In general, Kd refers to the equilibrium constant for the complex coming apart.

In data set [1] the target is T1, F123A mutant of TipAL (Streptomyces lividans, UniProt P0A4T9, F123A). Briefly: FPA, thiostrepton-induced activation of F123A TipAL-ptipA binding. The data set is classed as biochemical. Particulars: thiostrepton 1:1, 15 min. As to the method: (§1) FPAs were performed in buffer consisting of 20 mM Tris-HCl, pH 7.5, 200 mM NaCl and 5% (v/v) glycerol at 298 K using a SpectraMax M5 microplate reader system (Molecular Devices, San Jose, CA, USA). The wavelengths of fluorescence excitation and emission were 486 and 525 nm, respectively. 26-bp dsDNA from the −10 and −35 regions of the tipA, mta, and skgA promoters with the sequences […], […], and […] were synthesized with a 5′-carboxyfluorescein label for the respective assays with TipAL, Mta, and SkgA proteins. For assays with thiostrepton supplementation, proteins were incubated with thiostrepton (Sigma) at a 1:1 ratio for 15 min prior to mixing with DNA in wells. Each well of a 384-well plate contained 10 nM of a fluorescently labeled DNA probe and different amounts of proteins with a final volume of 80 μl. DNA-free controls were included, and three replicates were performed for each reaction for each assay. The fluorescence polarization ΔP (in mP units) was calculated and fitted according to a one-site specific binding model using GraphPad Prism7 (GraphPad Software) with the function ΔP = ΔPmax[protein]/(Kd + [protein]).
Target sequence in this assay (P0A4T9 whole entry F123A): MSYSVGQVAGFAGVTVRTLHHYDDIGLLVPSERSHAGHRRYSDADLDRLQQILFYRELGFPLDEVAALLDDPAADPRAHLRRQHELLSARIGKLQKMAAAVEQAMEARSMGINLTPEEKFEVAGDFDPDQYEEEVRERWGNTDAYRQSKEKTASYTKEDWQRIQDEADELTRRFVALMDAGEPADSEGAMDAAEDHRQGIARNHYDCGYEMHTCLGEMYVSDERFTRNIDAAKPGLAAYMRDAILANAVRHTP

For data set [2], the system named is TipAL. Description: FPA, thiostrepton-induced activation of TipAL-ptipA binding. The data set is classed as biochemical, Streptomyces lividans. Conditions: WT TipAL with vs without thiostrepton (1:1, 15 min). The protocol:
as §1

In data set [3] the target is T2, F123A/F126A mutant of TipAL (Streptomyces lividans, UniProt P0A4T9, F123A/F126A). Description: FPA, thiostrepton-induced activation of F123A/F126A TipAL-ptipA binding. It is filed as biochemical. Particulars: thiostrepton 1:1, 15 min. The protocol:
as §1
Target sequence in this assay (P0A4T9 whole entry F123A/F126A): as the sequence (P0A4T9 whole entry F123A) above, with F126A counted along it

The target in data set [4] is T2, F123A/F126A mutant of TipAL. Description: Isothermal titration calorimetry, thiopeptide binding to F123A/F126A TipAL. As to the method:
(§2) The ITC binding studies of the nosiheptide (Sigma) with WT TipAL and its mutants were performed using an ITC200 (GE Healthcare) at 298 K using a previously described protocol ([38]), with 60 μl of nosiheptide solution in the injector cell and 260 μl of protein solution in the sample cell. The injection volumes were set to […] for all experiments, and two consecutive injections were separated by 2 min to reset the baseline. The control experiments, in which nosiheptide was titrated against the buffer, were also conducted, and the results were subtracted from the results of each standard experiment for adjustments. Three replicates were performed for each reaction. The final data were processed with a one-site fitting model using Microcal-Origin (OriginLab Corp, Northampton, MA, USA).
(In ITC the heat of successive injections is recorded.)

A further data set concerns the target WT TipAL (Streptomyces lividans, UniProt P0A4T9). Briefly: Isothermal titration calorimetry, thiopeptide binding to WT TipAL. As to the method:
as §2

Data set [5] addresses I112A/F123A mutant of TipAL (Streptomyces lividans, UniProt P0A4T9, F123A/I112A). Description: Isothermal titration calorimetry, thiopeptide binding to I112A/F123A TipAL. As to the method:
as §2

The target in data set [6] is T1, F123A mutant of TipAL. Description: Isothermal titration calorimetry, thiopeptide binding to F123A TipAL. As to the method:
as §2

The next data set has as its target T3, TipAH7 (Streptomyces lividans, UniProt P0A4T9 1-140).
T3 sequence: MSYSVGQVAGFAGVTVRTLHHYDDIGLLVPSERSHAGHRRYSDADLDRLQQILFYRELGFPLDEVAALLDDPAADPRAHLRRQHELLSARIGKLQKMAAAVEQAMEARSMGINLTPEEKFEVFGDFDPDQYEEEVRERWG
Description: fluorescence polarization; no thiostrepton; 20 mM Tris-HCl pH 7.5, 200 mM NaCl, 5% (v/v) glycerol, 298 K; 10 nM labeled DNA. Conditions: protein: recombinant; tags: His6 (pET-28a); chain copies: 2; label: 5'-carboxyfluorescein; blunt. In general terms: Polarisation of emitted light reports the rotation of a fluorescent probe.

The target in a further data set is T4, TipAN (Streptomyces lividans, UniProt P0A4T9 1-109).
T4 sequence: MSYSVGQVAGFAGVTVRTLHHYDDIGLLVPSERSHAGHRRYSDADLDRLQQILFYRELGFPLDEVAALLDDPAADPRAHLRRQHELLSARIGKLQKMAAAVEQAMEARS
Described as above. Particulars: protein: recombinant; tags: His6 (pET-28a); chain copies: 2; label: 5'-carboxyfluorescein; blunt.

The next data set addresses T5, TipAL I112A/F123A (Streptomyces lividans, UniProt P0A4T9 1-253, I112A;F123A).
T5 sequence: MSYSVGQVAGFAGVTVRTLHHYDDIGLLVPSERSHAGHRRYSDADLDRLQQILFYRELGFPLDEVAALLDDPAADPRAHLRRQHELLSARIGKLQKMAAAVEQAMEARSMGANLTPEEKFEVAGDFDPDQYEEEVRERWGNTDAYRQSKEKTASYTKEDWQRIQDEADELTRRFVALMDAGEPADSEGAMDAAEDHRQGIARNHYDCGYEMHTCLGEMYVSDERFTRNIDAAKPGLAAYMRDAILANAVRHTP
Briefly: fluorescence polarization; thiostrepton 1:1; 20 mM Tris-HCl pH 7.5, 200 mM NaCl, 5% (v/v) glycerol, 298 K; 10 nM labeled DNA. Particulars: protein: recombinant; tags: His6 (pET-28a); chain copies: 2; label: 5'-carboxyfluorescein; blunt.

Another data set addresses T6, TipAL F123A (Streptomyces lividans, UniProt P0A4T9 1-253, F123A).
T6 sequence: T5 sequence with A112I
The data set is described as above. Conditions: protein: recombinant; tags: His6 (pET-28a); chain copies: 2; label: 5'-carboxyfluorescein; blunt.

Data set [7] concerns the target T7, TipAL (Streptomyces lividans, UniProt P0A4T9 1-253).
T7 sequence: T5 sequence with A112I, A123F
Described as above. Conditions: protein: recombinant; tags: His6 (pET-28a); chain copies: 2; label: 5'-carboxyfluorescein; blunt.

A further data set deals with T8, TipAL F123A/F126A (Streptomyces lividans, UniProt P0A4T9 1-253, F123A;F126A).
T8 sequence: T5 sequence with A112I, F126A
Described as above. Conditions: protein: recombinant; tags: His6 (pET-28a); chain copies: 2; label: 5'-carboxyfluorescein; blunt.

Details of data set [8]: method as in PMID 11669632, PMID 14985361. Particulars: ref [19], [26]; cited from earlier work.
In data set [9] the target is tipA promoter DNA (ptipA). Description: Fluorescence polarization assay, tipA promoter DNA binding. Details: species or system Streptomyces lividans. Conditions: apo, no antibiotic; FPA, 10 nM 5'-carboxyfluorescein-labeled 26-bp dsDNA, 20 mM Tris-HCl pH 7.5, 200 mM NaCl, 5% glycerol, 298 K; ex 486/em 525 nm; one-site binding fit; three replicates; n.b. = printed in picture, not defined; read-out: Kd, affinity with the tipA promoter DNA (ptipA). As to the method: Fluorescence polarization assays (FPAs) were performed to test the structure-based hypothesis that α6–α7 plays a key role in communication between the ligand-binding and DNA-binding regions. […] Parallel experiments were also performed for Mta and SkgA proteins, and consistent results were obtained.
as §1

Residue numbers refer to the chain shown, from its start.

Sequence of WT TipAL (P0A4T9 whole entry): as the sequence (P0A4T9 whole entry F123A) above, with A123F counted along it

As to `C=C(NC(=O)C(=C)NC(=O)c1csc(C2=N[C@@H]3c4csc(n4)[C@H]4NC(=O)c5csc(n5)[C@H]([C@](C)(O)[C@@H](C)O)NC(=O)[C@H]5CSC(=N5)/C(=C/C)NC(=O)[C@H]([C@@H](C)O)NC(=O)c5csc(n5)[C@]3(CC2)NC(=O)[C@H](C)NC(=O)C(=C)NC(=O)[C@H](C)NC(=O)[C@H]([C@@H](C)CC)N[C@@H]2C=Cc3c([C@H](C)O)cc(nc3[C@H]2O)C(=O)O[C@@H]4C)n1)C(N)=O` [thiostrepton], the “rise in ptipA binding in the presence of thiostrepton” value (at F123A mutant of TipAL [1]; in data set [3]) was “did not show such a significant rise” each time. Further, the “increase in ptipA affinity of TipAL by thiostrepton binding” value in the data set with TipAL [2] is approximately 12.6 fold.

As for `C=C(NC(=O)c1csc(-c2nc3c(cc2O)-c2nc(cs2)C(=O)NC(C(C)O)C(=O)N/C(=C\C)c2nc(cs2)C(=O)NC2CC(O)C(=O)OCc4cccc5[nH]c(c(C)c45)C(=O)SCC(NC(=O)c4csc2n4)c2nc-3cs2)n1)C(N)=O` (stereo not drawn) [thiopeptide, nosiheptide], the equilibrium dissociation constant (Kd) was 13200 ± 1360 nM in data set [4], 5230 ± 840 nM on WT TipAL, 7510 ± 870 nM in [5] and 7120 ± 950 nM on F123A mutant of TipAL [6]. Besides, the “decrease in thiopeptide affinity vs WT” value in data set [4] (F123A/F126A vs WT TipAL, ITC) was approximately 2.5 fold; on F123A mutant of TipAL [6] (F123A vs WT TipAL, ITC), approximately 1.4 fold. Further, in data set [5] (I112A/F123A vs WT and F123A TipAL, ITC), the “thiopeptide-binding affinity compared with WT and F123A” value is given as “without a significant difference”.

B1: ptipA (dsDNA)
DNA 1: TTGCACCTCACGTCACGTGAGGAGGC
DNA 2: GCCTCCTCACGTGACGTGAGGTGCAA
For the molecule B1, the dissociation constant (Kd) worked out at 318 ± 58.5 nM with TipAH7; 44 ± 5.1 nM with TipAN; 685 ± 97.9 nM with TipAL I112A/F123A; 228 ± 25.9 nM with TipAL F123A; 30.2 ± 3.7 nM with TipAL [7]; 317 ± 51.4 nM with TipAL F123A/F126A.

B2: TipAN: N terminus of TipAL, residues 1–109 (protein)
chain: T4 sequence
modifications: left off: His6, end not stated, state not stated
With B2, the “transcriptional activity in the absence of the TipAS domain” value in data set [8] was “constitutively transcriptionally active”. In data set [9], the Kd turned out to be 44 ± 5.1 nM.
